Reference: US4261885A, “Novel somatostatin analogue” (Shiraimatsu Shingaku Co., Ltd., priority 1978, dated 1981)
Peptide text beside a SMILES is read from it.

Key:
blood insulin levels = assay: Arginine-induced changes in blood insulin in rats (radioimmunoassay); assay type: in vivo, rat
Protocol: (§1) Studies were made of the effects of the compound of this invention on arginine-induced changes in blood glucose, insulin and glucagon levels and the results obtained were compared with those of somatostatin.
(§2) Male SD rats weighing 300 to 500 g were anesthetized with sodium pentobarbital (60 mg/kg of body weight, by intraabdominal puncture) and polyethylene catheters were placed in their carotid artery. Saline was infused over 10 minutes, and arginine was infused at a rate of 3 g/kg/hr, for 60 minutes, using an infusion pump (at a rate of 4.5 ml/kg/hr). For 30 minutes, immediately after the start of arginine infusion, somatostatin or the compound of this invention was infused at rates of 4 μg/kg/hr, as a basal dose, 40 μg/kg/hr as 10 times as the basal dose, and 400 μg/kg/hr, as 100 times as the basal dose, respectively.
(§3) Before and 15 minutes, 30 minutes and 60 minutes after the start of arginine infusion, blood samples were taken in the presence of heparine. Blood glucose values were measured by the glucose oxidase method, and blood insulin and glucagon values were measured by the radioimmunoassay method.

blood glucagon levels = assay: Arginine-induced changes in blood glucagon in rats (radioimmunoassay); assay type: in vivo, rat
Protocol: as §1, §2, §3

blood glucose levels = assay: Arginine-induced changes in blood glucose in rats (glucose oxidase method); assay type: in vivo, rat
Protocol: as §1, §2, §3

[1] = Stability in pharmaceutical preparations; assay type: physicochemical; settings: when used in pharmaceutical preparations
Solubility in water = assay type: physicochemical
mouse = assay: Acute toxicity, infusion into the tail vein of a test mouse; assay type: in vivo
Protocol: The experiment for determining acute toxicity is carried out by infusing this compound into the tail vein of a test mouse in the amount of 5 mg/kg of body weight.

[2] = rats, arginine 3 g/kg/hr, substance infused for 30 minutes

| Compound | effect after the suspension of infusion (blood insulin levels; 15 minutes after the suspension of infusion, conclusion on insulin and glucagon) | effect on blood insulin level after suspension of infusion (blood insulin levels; 45 minutes after start of arginine infusion = 15 minutes after suspension of substance infusion) | rise in blood insulin levels versus control (blood insulin levels; at more than 10 times the basal dose, 15 minutes after start of arginine infusion) | rise in blood insulin levels versus control (blood insulin levels; at more than 100 times the basal dose, 30 minutes after start of arginine infusion) | rise in blood insulin levels (insulin secretion) enhanced by arginine (blood insulin levels; [2]) | effect on blood glucagon level (blood glucagon levels; 45 minutes after start of arginine infusion) | blood glucagon level versus control (blood glucagon levels; at more than 10 times the basal dose, 15 minutes and 30 minutes after start of arginine infusion) | blood glucose level versus control (blood glucose levels; at 100 times the basal dose (basal 4 μg/kg/hr), 30 minutes after start of arginine infusion) | blood glucose level versus control (blood glucose levels; at more than 10 times the basal dose (basal 4 μg/kg/hr), 15 minutes after start of arginine infusion) | rise in blood glucose levels induced by arginine (blood glucose levels; [2]) | stability compared with somatostatin [1] | solubility in water (Solubility in water) | changes or side effects in respect of body weight, body temperature and blood sugar value (mouse; tail vein infusion, 5 mg/kg of body weight) | acute toxicity (mouse; tail vein, concluded from the 5 mg/kg experiment) |
| --- | --- | --- | --- | --- | --- | --- | --- | --- | --- | --- | --- | --- | --- | --- |
| C[C@H](N)C(=O)NCC(=O)N[C@H]1CSSC[C@@H](C(=O)O)NC(=O)[C@H](CO)NC(=O)[C@H]([C@@H](C)O)NC(=O)[C@H](Cc2ccccc2)NC(=O)[C@H]([C@@H](C)O)NC(=O)[C@H](CCCCN)NC(=O)[C@H](Cc2c[nH]c3ccccc23)NC(=O)[C@H](Cc2ccccc2)NC(=O)[C@H](Cc2ccccc2)NC(=O)[C@H](CC(N)=O)NC(=O)[C@H](CCCCN)NC1=O [somatostatin] | its effect was no longer observed | failed to exert its effect | significantly inhibited | significantly inhibited | inhibited the rise in blood insulin levels dose dependently | lost its effect | significantly lowered its level | Statistically significant low levels of blood glucose | Statistically significant low levels of blood glucose | inhibited | – | – | – | – |
| C[C@@H](O)[C@@H]1NC(=O)[C@H](CCCCN)NC(=O)[C@@H](Cc2c[nH]c3ccccc23)NC(=O)[C@H](Cc2ccccc2)NC(=O)[C@H](Cc2ccccc2)NC(=O)[C@H](CC(N)=O)NC(=O)[C@H](CCCCN)NC(=O)CCCCC[C@H](C(=O)O)NC(=O)[C@H](CO)NC(=O)[C@H]([C@@H](C)O)NC(=O)[C@H](Cc2ccccc2)NC1=O [the compound of this invention, Des-(Ala^1,Gly^2)-(D-Trp^8,D-Asu^3,14)-somatostatin] (HELM PEPTIDE1{K.N.F.F.[dW].K.T.F.T.S.[O=C(O)[C@@H](CCCCCC(=O)[*:3])N[*:1]]}$PEPTIDE1,PEPTIDE1,1:R1-11:R3$$$V2.0) | – | – | – | – | – | – | – | – | – | – | far superior to somatostatin | soluble in water | No significant changes or side effects were observed | considered to be insignificant |
